Measured values as given in PubChem BioAssay (NCI).
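The compound was tested at five concentrations on cells cultured in 96-well plates, with a 48-hour exposure period. TGI is the concentration that stops growth completely.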

Tests used:
Assay in all cases: NCI-60 cell line screen, 48 h
LXFL 529 NSCLC = tested on: LXFL 529 NSCLC
NCI-H460 lung = tested on: NCI-H460 lung
MALME-3M melanoma = tested on: MALME-3M melanoma
SF-539 CNS = tested on: SF-539 CNS
SNB-78 CNS = tested on: SNB-78 CNS
DMS 114 small cell lung = tested on: DMS 114 small cell lung
DLD-1 colon = tested on: DLD-1 colon
NCI-H522 lung = tested on: NCI-H522 lung
IGROV1 ovarian = tested on: IGROV1 ovarian
RPMI-8226 leukemia = tested on: RPMI-8226 leukemia
SK-MEL-28 melanoma = tested on: SK-MEL-28 melanoma
RXF 393 renal = tested on: RXF 393 renal
SW-620 colon = tested on: SW-620 colon
A549 NSCLC = tested on: A549 NSCLC
EKVX NSCLC = tested on: EKVX NSCLC
ACHN renal = tested on: ACHN renal
HCT-116 colon = tested on: HCT-116 colon
786-0 renal = tested on: 786-0 renal
MOLT-4 leukemia = tested on: MOLT-4 leukemia
KM20L2 colon = tested on: KM20L2 colon
SNB-75 CNS = tested on: SNB-75 CNS
SK-MEL-2 melanoma = tested on: SK-MEL-2 melanoma
HOP-92 NSCLC = tested on: HOP-92 NSCLC
K-562 leukemia = tested on: K-562 leukemia
HT29 colon = tested on: HT29 colon
UACC-257 melanoma = tested on: UACC-257 melanoma
U251 CNS = tested on: U251 CNS
UO-31 renal = tested on: UO-31 renal
SK-OV-3 ovarian = tested on: SK-OV-3 ovarian
HCC-2998 colon = tested on: HCC-2998 colon
NCI-H23 lung = tested on: NCI-H23 lung
SN12C renal = tested on: SN12C renal
CAKI-1 renal = tested on: CAKI-1 renal
HCT-15 colon = tested on: HCT-15 colon
SNB-19 CNS = tested on: SNB-19 CNS
SK-MEL-5 melanoma = tested on: SK-MEL-5 melanoma
XF 498 CNS = tested on: XF 498 CNS
SF-295 CNS = tested on: SF-295 CNS
OVCAR-5 ovarian = tested on: OVCAR-5 ovarian
OVCAR-4 ovarian = tested on: OVCAR-4 ovarian
SR leukemia = tested on: SR leukemia
KM12 colon = tested on: KM12 colon
HOP-18 NSCLC = tested on: HOP-18 NSCLC
NCI-H226 lung = tested on: NCI-H226 lung
RXF-631 renal = tested on: RXF-631 renal
TK-10 renal = tested on: TK-10 renal
OVCAR-8 ovarian = tested on: OVCAR-8 ovarian
UACC-62 melanoma = tested on: UACC-62 melanoma
CCRF-CEM leukemia = tested on: CCRF-CEM leukemia
COLO 205 colon = tested on: COLO 205 colon
M14 melanoma = tested on: M14 melanoma
LOX IMVI melanoma = tested on: LOX IMVI melanoma
SF-268 CNS = tested on: SF-268 CNS
HOP-62 NSCLC = tested on: HOP-62 NSCLC
M19-MEL melanoma = tested on: M19-MEL melanoma
A498 renal = tested on: A498 renal
OVCAR-3 ovarian = tested on: OVCAR-3 ovarian
DMS 273 small cell lung = tested on: DMS 273 small cell lung

Measured: TGI

O=C(O/C(=C(/N=Nc1ccccc1)c1ccccc1)c1ccccc1)c1ccccc1
not listed: CCRF-CEM leukemia | COLO 205 colon | M14 melanoma | LOX IMVI melanoma | SF-268 CNS | HOP-62 NSCLC | M19-MEL melanoma | A498 renal | OVCAR-3 ovarian | DMS 273 small cell lung
> 100 µM: all other assays above

O=C1Nc2nc3ccccc3n2N=C2CCCC12 (stereo unspecified)
not listed: NCI-H522 lung | HOP-92 NSCLC | SR leukemia | HOP-18 NSCLC | NCI-H226 lung
> 100 µM: all other assays above
